Here are results for three molecules from US20240366784A1, “INJECTABLE HYDROGEL COMPOSITIONS AND METHODS OF USE THEREOF” (Drexel University, priority 2023, published 2024).

For experiment [1] the following is noted: typically reported; cited from earlier work.
For experiment [2], the system named is Bone marrow derived macrophages (BMDMs). Description: nanoString gene expression analysis in zymosan-activated bone marrow derived macrophages. Particulars: zymosan 100 μg/mL, drug 1 μM, 24 hrs, 91-gene panel. Type of experiment: cell-based, mouse. The protocol:
Cells were maintained under standard culture conditions (37° C., 5% CO2) in the indicated medium which was replenished every two days. The murine MF cell lines, RAW 264.7 (ATCC) and RAW-Blue™ (InvivoGen), were cultured in Dulbecco's Modified Eagle Medium (DMEM) supplemented with heat-inactivated fetal bovine serum (FBS), and 1% penicillin-streptomycin (Pen-Strep). RAW-Blue™ media was additionally supplemented by 100 μg/ml Normocin with the addition of 100 μg/ml of Zeocin every other passage to maintain selection pressure, as recommended by the manufacturer. Cells were passaged at 70% confluency. Primary MF were derived from murine and human tissues. Bone marrow derived macrophages (BMDMs) were isolated and derived according to standard protocols. Marrow was extracted from the surgically resected femur and tibia of male C57BL/6 mice, dissociated, and filtered using a 40 μm strainer. Red blood cells were lysed with ammonium chloride, and recovered cells were plated at 2×10^6 cells/well in 24 well plates and maintained in Iscove's Modification of DMEM (IMDM) supplemented with 10% heat-inactivated FBS, 1% Pen-Strep, and 10 ng/mL recombinant mouse macrophage colony-stimulating factor (M-CSF; PeproTech). Primary human monocytes were isolated from peripheral blood (New York Blood Center) from a single healthy human donor via density centrifugation as previously described in the literature. […]

The subject of experiment [3] is RAW264.7 cells. Kind of experiment: qPCR transcriptional analysis of zymosan-activated RAW264.7 macrophages. Format: cell-based, murine. Particulars: zymosan 100 μg/mL, drug 1 μM, 24 hrs. The procedure:
For secondary identification of M2-promoting drugs, transcriptional analysis using qPCR was performed. RAW264.7 cells were plated at 1×10^6 cells/well in 24 well plates. After 24 h, media was replaced, and IL-4 (10 ng/mL, PeproTech) or zymosan (100 μg/mL) were included to serve as internal controls for M2-like and M1-like phenotypes, respectively. Treatment groups were concurrently activated via zymosan and treated with 1 μM drug concentrations, n=3 per group. After 24 hrs, cells were lysed by freezing, RNA was extracted (RNEasy Mini Kit; Qiagen), and cDNA synthesis was performed (High-Capacity cDNA Reverse Transcription Kit; Fisher). Samples were subject to qPCR using Taqman Fast Advanced Master Mix and probes (Fisher) for analysis of hprt (Mm01545399_m1), nos2 (Mm00440502_m1), il12b (Mm01288989_m1), il6 (Mm00446190_m1), mrc1 (Mm00485148_m1), il10 (Mm01288386_m1), and arg1 (Mm00475988_m1). Data is expressed as a fold change in gene expression using the ΔΔCt method, relative to the hprt and zymosan-treated controls.
A general note: In qPCR the cycle at which signal appears reflects the starting amount.

For the molecule `N[C@@H](Cc1c[nH]c2ccccc12)C(=O)O` [tryptophan], the “Keq of polyaromatic guests with CD” value in experiment [1] was “single micromolar”.
`COc1ccc(C(=O)Nc2c(Cl)cncc2Cl)cc1OC1CCCC1` [piclamilast]: the “cluster analysis of macrophage phenotype” value in experiment [2] was “intermediate to M1 and M2 control phenotypes”. Also, in experiment [3], the “change in il12b expression among six selected drugs” value is “greatest decrease”; the “change in mrc1 and il10 expression among six selected drugs” value was “greatest increase”. Also, in experiment [3] (qPCR), the “expression of M1-like genes (nos2, il6, il12b)” value is reported as “significantly downregulated” and the “expression of M2-like genes (mrc1, arg1, il10)” value is given as “upregulation”.
For `COc1cccc2c1C(=O)c1c(O)c3c(c(O)c1C2=O)C[C@@](O)(C(=O)CO)C[C@@H]3O[C@H]1C[C@H](N)[C@H](O)[C@H](C)O1` [doxorubicin], the “Keq of polyaromatic guests with CD” value in experiment [1] is given as “single micromolar”.
